Values quoted from earlier work, collected in patent US10544223B2, “Combination therapy with an anti-axl antibody-drug conjugate” (ADC THERAPEUTICS SA, priority 2017, dated 2020).

Tests used:
DNA repair genes = details: inhibition of AXL
AXL = details: incubation of tumor cells with MEKi
advanced melanoma = details: phase III trials, advanced melanoma patients

| Compound | efficiency of the homologous recombination repair machinery (DNA repair genes) | expression of DNA repair genes (DNA repair genes) | accumulation of AXL on the membrane of tumor cells (AXL) | also measured |
| --- | --- | --- | --- | --- |
| Nc1nc(Nc2ccc3c(c2)CC[C@@H](N2CCCC2)CC3)nn1-c1cc2c(nn1)-c1ccccc1CCC2 [BGB324] | diminish the efficiency of the homologous recombination repair machinery | decrease expression of DNA repair genes |  |  |
| O=C(NOC[C@H](O)CO)c1ccc(F)c(F)c1Nc1ccc(I)cc1F [PD325901] |  |  | induced a strong accumulation of AXL |  |
| CN1CCN(Cc2ccc(Nc3ncc(Cl)c(Nc4ccccc4S(=O)(=O)N(C)C)n3)cc2)CC1 [TP0903] | diminish the efficiency of the homologous recombination repair machinery | decrease expression of DNA repair genes |  |  |
| N#CC(=C(/N)Sc1ccccc1N)/C(C#N)=C(\N)Sc1ccccc1N [U0126] |  |  | induced a strong accumulation of AXL |  |
| Fludarabine |  |  |  | ERCC1 transcription (ERCC1 transcription): suppress ERCC1 transcription |
| tremelimumab: anti-CTLA4 antibody |  |  |  | overall survival compared to the standard of care (temozolomide or dacarbazine) (advanced melanoma): did not significantly increase the overall survival |
